Data taken from PubChem BioAssay (NCI).
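Protocol summary: plate cells (96-well), add compound at 5 concentrations, incubate 48 h, interpolate endpoints linearly. GI50 = concentration required for 50% inhibition of growth. TGI is the concentration that stops growth completely.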

Columns and labels:
Test in all cases: inhibition of tumour cell growth, NCI panel, 48 h
HCT-116 colon = system: HCT-116 colon
OVCAR-8 ovarian = system: OVCAR-8 ovarian
TK-10 renal = system: TK-10 renal
HOP-92 NSCLC = system: HOP-92 NSCLC
DU-145 prostate = system: DU-145 prostate
OVCAR-5 ovarian = system: OVCAR-5 ovarian
A498 renal = system: A498 renal
NCI-H460 lung = system: NCI-H460 lung
RXF 393 renal = system: RXF 393 renal
A549 NSCLC = system: A549 NSCLC
HCT-15 colon = system: HCT-15 colon
MOLT-4 leukemia = system: MOLT-4 leukemia
COLO 205 colon = system: COLO 205 colon
SF-539 CNS = system: SF-539 CNS
SW-620 colon = system: SW-620 colon
NCI/ADR-RES ovarian = system: NCI/ADR-RES ovarian
CCRF-CEM leukemia = system: CCRF-CEM leukemia
IGROV1 ovarian = system: IGROV1 ovarian
NCI-H522 lung = system: NCI-H522 lung
RPMI-8226 leukemia = system: RPMI-8226 leukemia
786-0 renal = system: 786-0 renal
T-47D breast = system: T-47D breast
MALME-3M melanoma = system: MALME-3M melanoma
BT-549 breast = system: BT-549 breast
SNB-19 CNS = system: SNB-19 CNS
HL-60(TB) leukemia = system: HL-60(TB) leukemia
HCC-2998 colon = system: HCC-2998 colon
M14 melanoma = system: M14 melanoma
SF-268 CNS = system: SF-268 CNS
LOX IMVI melanoma = system: LOX IMVI melanoma
SK-MEL-5 melanoma = system: SK-MEL-5 melanoma
CAKI-1 renal = system: CAKI-1 renal
UACC-62 melanoma = system: UACC-62 melanoma
HOP-62 NSCLC = system: HOP-62 NSCLC
SK-OV-3 ovarian = system: SK-OV-3 ovarian
OVCAR-4 ovarian = system: OVCAR-4 ovarian
UACC-257 melanoma = system: UACC-257 melanoma
OVCAR-3 ovarian = system: OVCAR-3 ovarian
SF-295 CNS = system: SF-295 CNS
PC-3 prostate = system: PC-3 prostate
K-562 leukemia = system: K-562 leukemia
MDA-MB-231 breast = system: MDA-MB-231 breast
SK-MEL-28 melanoma = system: SK-MEL-28 melanoma
U251 CNS = system: U251 CNS
SN12C renal = system: SN12C renal
HS 578T breast = system: HS 578T breast
NCI-H23 lung = system: NCI-H23 lung
MCF7 breast = system: MCF7 breast
EKVX NSCLC = system: EKVX NSCLC
SK-MEL-2 melanoma = system: SK-MEL-2 melanoma
KM12 colon = system: KM12 colon
HT29 colon = system: HT29 colon
SR leukemia = system: SR leukemia
UO-31 renal = system: UO-31 renal
NCI-H226 lung = system: NCI-H226 lung

O=C(O)CCCn1c(SCc2c(Cl)cccc2Cl)nc2ccsc2c1=O
GI50 (HCT-116 colon): 432 nM | TGI (HCT-116 colon): > 100000 nM | GI50 (OVCAR-8 ovarian): 828 nM | TGI (OVCAR-8 ovarian): > 100000 nM | GI50 (TK-10 renal): 26200 nM | TGI (TK-10 renal): > 100000 nM | GI50 (HOP-92 NSCLC): 236 nM | TGI (HOP-92 NSCLC): > 100000 nM | GI50 (DU-145 prostate): 479 nM | TGI (DU-145 prostate): > 100000 nM | GI50 (OVCAR-5 ovarian): 5740 nM | TGI (OVCAR-5 ovarian): > 100000 nM | GI50 (A498 renal): 311 nM | TGI (A498 renal): > 100000 nM | GI50 (NCI-H460 lung): 419 nM | TGI (NCI-H460 lung): > 100000 nM | GI50 (RXF 393 renal): 306 nM | TGI (RXF 393 renal): 2780 nM | GI50 (A549 NSCLC): 715 nM | TGI (A549 NSCLC): > 100000 nM | GI50 (HCT-15 colon): 321 nM | TGI (HCT-15 colon): > 100000 nM | GI50 (MOLT-4 leukemia): 440 nM | TGI (MOLT-4 leukemia): > 100000 nM | GI50 (COLO 205 colon): 384 nM | TGI (COLO 205 colon): 10800 nM | GI50 (SF-539 CNS): 260 nM | TGI (SF-539 CNS): 943 nM | GI50 (SW-620 colon): 407 nM | TGI (SW-620 colon): > 100000 nM | GI50 (NCI/ADR-RES ovarian): 276 nM | TGI (NCI/ADR-RES ovarian): > 100000 nM | GI50 (CCRF-CEM leukemia): 377 nM | TGI (CCRF-CEM leukemia): > 100000 nM | GI50 (IGROV1 ovarian): 1350 nM | TGI (IGROV1 ovarian): > 100000 nM | GI50 (NCI-H522 lung): 205 nM | TGI (NCI-H522 lung): 32200 nM | GI50 (RPMI-8226 leukemia): 489 nM | TGI (RPMI-8226 leukemia): > 100000 nM | GI50 (786-0 renal): 399 nM | TGI (786-0 renal): 32900 nM | GI50 (T-47D breast): 482 nM | TGI (T-47D breast): > 100000 nM | GI50 (MALME-3M melanoma): 336 nM | TGI (MALME-3M melanoma): > 100000 nM | GI50 (BT-549 breast): 459 nM | TGI (BT-549 breast): > 100000 nM | GI50 (SNB-19 CNS): 517 nM | TGI (SNB-19 CNS): > 100000 nM | GI50 (HL-60(TB) leukemia): 284 nM | TGI (HL-60(TB) leukemia): 12000 nM | GI50 (HCC-2998 colon): 1850 nM | TGI (HCC-2998 colon): 23200 nM | GI50 (M14 melanoma): 366 nM | TGI (M14 melanoma): > 100000 nM | GI50 (SF-268 CNS): 830 nM | TGI (SF-268 CNS): > 100000 nM | GI50 (LOX IMVI melanoma): 509 nM | TGI (LOX IMVI melanoma): > 100000 nM | GI50 (SK-MEL-5 melanoma): 283 nM | TGI (SK-MEL-5 melanoma): 57300 nM | GI50 (CAKI-1 renal): 452 nM | TGI (CAKI-1 renal): > 100000 nM | GI50 (UACC-62 melanoma): 185 nM | TGI (UACC-62 melanoma): 34200 nM | GI50 (HOP-62 NSCLC): 819 nM | TGI (HOP-62 NSCLC): > 100000 nM | GI50 (SK-OV-3 ovarian): 710 nM | TGI (SK-OV-3 ovarian): > 100000 nM | GI50 (OVCAR-4 ovarian): 7990 nM | TGI (OVCAR-4 ovarian): > 100000 nM | GI50 (UACC-257 melanoma): 58700 nM | TGI (UACC-257 melanoma): > 100000 nM | GI50 (OVCAR-3 ovarian): 206 nM | TGI (OVCAR-3 ovarian): 1620 nM | GI50 (SF-295 CNS): 376 nM | TGI (SF-295 CNS): > 100000 nM | GI50 (PC-3 prostate): 354 nM | TGI (PC-3 prostate): > 100000 nM | GI50 (K-562 leukemia): 272 nM | TGI (K-562 leukemia): > 100000 nM | GI50 (MDA-MB-231 breast): 774 nM | TGI (MDA-MB-231 breast): 50900 nM | GI50 (SK-MEL-28 melanoma): 698 nM | TGI (SK-MEL-28 melanoma): > 100000 nM | GI50 (U251 CNS): 529 nM | TGI (U251 CNS): > 100000 nM | GI50 (SN12C renal): 661 nM | TGI (SN12C renal): > 100000 nM | GI50 (HS 578T breast): 434 nM | TGI (HS 578T breast): > 100000 nM | GI50 (NCI-H23 lung): 587 nM | TGI (NCI-H23 lung): > 100000 nM | GI50 (MCF7 breast): 263 nM | TGI (MCF7 breast): > 100000 nM | GI50 (EKVX NSCLC): 4520 nM | TGI (EKVX NSCLC): > 100000 nM | GI50 (SK-MEL-2 melanoma): 386 nM | TGI (SK-MEL-2 melanoma): > 100000 nM | GI50 (KM12 colon): 321 nM | TGI (KM12 colon): > 100000 nM | GI50 (HT29 colon): 448 nM | TGI (HT29 colon): > 100000 nM | GI50 (SR leukemia): 316 nM | TGI (SR leukemia): > 100000 nM | GI50 (UO-31 renal): 478 nM | TGI (UO-31 renal): > 100000 nM | GI50 (NCI-H226 lung): 685 nM | TGI (NCI-H226 lung): > 100000 nM
